According to ChEMBL document CHEMBL5390209, “Spinosyn A and Its Derivative Inhibit Colorectal Cancer Cell Growth via the EGFR Pathway” (J Nat Prod, 2023):
The source made the active and inactive calls. No cut-off for these calls is given here.

Tests used:
[1] = target: Epidermal growth factor receptor (Homo sapiens) (UniProt P00533); assay: Inhibition of EGFR in human HT-29 cells assessed as reduction in ratio of p-EGFR/EGFR level at 15 uM measured after 3 to 15 hrs by Western blotting analysis; type: cell-based; settings: time 3-15 hrs
Chain of Epidermal growth factor receptor (Homo sapiens) (P00533 whole entry): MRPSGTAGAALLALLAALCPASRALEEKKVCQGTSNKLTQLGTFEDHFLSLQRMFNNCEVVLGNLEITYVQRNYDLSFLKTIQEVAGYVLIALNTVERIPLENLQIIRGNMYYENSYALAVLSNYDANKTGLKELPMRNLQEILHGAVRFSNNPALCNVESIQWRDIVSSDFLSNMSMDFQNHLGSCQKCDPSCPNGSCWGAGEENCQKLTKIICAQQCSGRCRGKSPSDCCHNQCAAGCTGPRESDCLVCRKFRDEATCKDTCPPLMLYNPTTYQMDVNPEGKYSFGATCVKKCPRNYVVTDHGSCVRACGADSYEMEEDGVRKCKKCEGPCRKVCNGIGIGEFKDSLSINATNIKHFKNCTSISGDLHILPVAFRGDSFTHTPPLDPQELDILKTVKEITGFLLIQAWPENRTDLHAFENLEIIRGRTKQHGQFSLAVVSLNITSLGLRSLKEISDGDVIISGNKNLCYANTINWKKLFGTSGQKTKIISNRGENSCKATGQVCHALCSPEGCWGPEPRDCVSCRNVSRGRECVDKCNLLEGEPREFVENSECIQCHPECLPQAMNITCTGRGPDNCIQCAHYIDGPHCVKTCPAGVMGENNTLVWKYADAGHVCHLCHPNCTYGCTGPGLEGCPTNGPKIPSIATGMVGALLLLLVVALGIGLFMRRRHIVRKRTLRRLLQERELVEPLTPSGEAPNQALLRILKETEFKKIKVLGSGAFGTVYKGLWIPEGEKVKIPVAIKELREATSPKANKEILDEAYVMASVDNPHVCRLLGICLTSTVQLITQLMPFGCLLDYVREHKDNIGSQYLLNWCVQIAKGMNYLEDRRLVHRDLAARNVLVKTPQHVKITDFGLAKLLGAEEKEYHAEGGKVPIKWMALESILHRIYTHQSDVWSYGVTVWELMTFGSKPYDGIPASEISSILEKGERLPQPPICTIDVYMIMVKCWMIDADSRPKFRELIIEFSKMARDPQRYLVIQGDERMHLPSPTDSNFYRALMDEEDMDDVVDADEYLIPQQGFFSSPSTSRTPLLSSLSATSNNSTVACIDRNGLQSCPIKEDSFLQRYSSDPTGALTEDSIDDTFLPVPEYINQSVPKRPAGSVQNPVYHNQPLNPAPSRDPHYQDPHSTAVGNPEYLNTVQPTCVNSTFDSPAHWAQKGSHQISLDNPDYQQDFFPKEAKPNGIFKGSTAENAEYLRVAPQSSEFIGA

[2] = target: Receptor tyrosine-protein kinase erbB-2 (Homo sapiens) (UniProt P04626); assay: Inhibition of HER2 in human HT-29 cells at 15 uM by Western blot analysis; type: cell-based; settings: time 3-15 hrs, TDE = time-dependent effect
Chain of Receptor tyrosine-protein kinase erbB-2 (Homo sapiens) (P04626 whole entry): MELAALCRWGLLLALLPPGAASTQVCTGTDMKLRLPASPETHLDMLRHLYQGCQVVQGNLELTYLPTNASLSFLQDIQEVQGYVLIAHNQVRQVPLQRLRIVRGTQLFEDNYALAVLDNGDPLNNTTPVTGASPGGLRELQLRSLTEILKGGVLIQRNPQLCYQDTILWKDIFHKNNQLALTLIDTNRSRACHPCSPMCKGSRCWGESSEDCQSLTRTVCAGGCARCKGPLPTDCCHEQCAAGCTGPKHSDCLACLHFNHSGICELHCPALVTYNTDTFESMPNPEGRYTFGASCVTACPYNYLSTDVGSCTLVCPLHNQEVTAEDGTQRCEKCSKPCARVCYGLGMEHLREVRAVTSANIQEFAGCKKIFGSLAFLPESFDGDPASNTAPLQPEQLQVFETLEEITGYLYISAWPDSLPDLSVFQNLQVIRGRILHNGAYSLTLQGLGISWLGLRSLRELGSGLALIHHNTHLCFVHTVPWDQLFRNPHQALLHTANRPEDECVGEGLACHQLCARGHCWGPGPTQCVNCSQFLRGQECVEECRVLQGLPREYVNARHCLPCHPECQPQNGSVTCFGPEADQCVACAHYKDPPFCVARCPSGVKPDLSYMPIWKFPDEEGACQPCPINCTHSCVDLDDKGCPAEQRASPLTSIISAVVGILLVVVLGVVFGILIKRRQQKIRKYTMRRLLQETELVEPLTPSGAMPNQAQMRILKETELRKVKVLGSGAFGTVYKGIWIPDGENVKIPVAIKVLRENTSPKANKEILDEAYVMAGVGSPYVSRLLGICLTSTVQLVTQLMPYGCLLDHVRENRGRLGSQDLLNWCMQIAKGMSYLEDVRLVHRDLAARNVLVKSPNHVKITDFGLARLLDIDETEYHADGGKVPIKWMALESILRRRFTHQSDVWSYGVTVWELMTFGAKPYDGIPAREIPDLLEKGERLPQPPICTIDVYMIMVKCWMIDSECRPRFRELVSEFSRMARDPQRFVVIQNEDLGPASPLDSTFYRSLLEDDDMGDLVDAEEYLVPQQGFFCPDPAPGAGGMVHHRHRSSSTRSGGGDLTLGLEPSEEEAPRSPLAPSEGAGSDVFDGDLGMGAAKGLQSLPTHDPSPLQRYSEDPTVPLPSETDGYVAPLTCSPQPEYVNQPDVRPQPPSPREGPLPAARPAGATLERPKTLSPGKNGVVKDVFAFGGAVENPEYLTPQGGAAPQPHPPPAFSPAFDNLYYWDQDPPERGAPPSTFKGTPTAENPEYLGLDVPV

[3] = target: Epidermal growth factor receptor (Homo sapiens) (UniProt P00533); assay: Inhibition of EGFR in human SW480 cells assessed as reduction in STAT3 phosphorylation level at 3.75 to 15 uM incubated for 24 hrs by Western blot analysis; type: cell-based; settings: dose 3.75-15 µM
[4] = Toxicity in human HT-29 cells xenografted Balb/c mouse assessed as change in liver pathology at 5 mg/kg/day, ip administrated for every other day and measured after 28 days; type: organism-based; settings: in vivo, 672 h, time 28 day
[5] = target: Epidermal growth factor receptor (Homo sapiens) (UniProt P00533); assay: Inhibition of EGFR in human HT-29 cells assessed as reduction in STAT3 phosphorylation level at 3.75 to 15 uM incubated for 24 hrs by Western blot analysis; type: cell-based; settings: dose 3.75-15 µM
[6] = target: Epidermal growth factor receptor (Homo sapiens) (UniProt P00533); assay: Inhibition of EGFR in human HT-29 cells assessed as reduction in Erk1/2 phosphorylation level at 3.75 to 15 uM incubated for 24 hrs by Western blotting analysis; type: cell-based; settings: dose 3.75-15 µM
[7] = tested on: HCT-116; assay: Inhibition of colony formation in human HCT-116 cells at 6 uM incubated for 14 days by crystal violet staining based colony formation assay; type: functional, cell-based; settings: time 14.0 day
[8] = Toxicity in human HT-29 cells xenografted Balb/c mouse assessed as change in spleen pathology at 5 mg/kg/day, ip administrated for every other day and measured after 28 days; type: organism-based; settings: in vivo, 672 h, time 28 day
[9] = tested on: HT-29; assay: Inhibition of EGFR in human HT-29 cells xenografted in BALB/c nude mouse assessed as reduction in EGFR protein expression level in tumor at 5 mg/kg/day, ip administrated for every other day and measured after 28 days by immunohistochemistry staining based analysis; type: functional, organism-based; settings: time 28.0 day
[10] = tested on: HT-29; assay: Inhibition of colony formation in human HT-29 cells at 0.75 uM incubated for 14 days by crystal violet staining based colony formation assay; type: functional, cell-based; settings: time 14.0 day
[11] = tested on: DLD-1; assay: Inhibition of colony formation in human DLD-1 cells at 0.75 uM incubated for 14 days by crystal violet staining based colony formation assay; type: functional, cell-based; settings: time 14.0 day
[12] = target: Epidermal growth factor receptor (Homo sapiens) (UniProt P00533); assay: Inhibition of EGFR in human HT-29 cells at 2 uM by Western blot analysis; type: cell-based; settings: time 3-15 hrs, TDE = time-dependent effect
[13] = Toxicity in human HT-29 cells xenografted Balb/c mouse assessed as change in lung pathology at 2.5 mg/kg/day, ip administrated for every other day and measured after 28 days; type: organism-based; settings: in vivo, 672 h, time 28 day
[14] = Toxicity in human HT-29 cells xenografted Balb/c mouse assessed as change in kidney pathology at 2.5 mg/kg/day, ip administrated for every other day and measured after 28 days; type: organism-based; settings: in vivo, 672 h, time 28 day
[15] = target: Epidermal growth factor receptor (Homo sapiens) (UniProt P00533); assay: Inhibition of EGFR in human HT-29 cells assessed as reduction in ratio of p-EGFR/EGFR level at 2 uM measured after 3 to 15 hrs by Western blot analysis; type: cell-based; settings: time 3-15 hrs
[16] = tested on: HT-29; assay: Inhibition of colony formation in HER2 knockdown human HT-29 cells at 0.75 uM incubated for 14 days by crystal violet staining based colony formation assay; type: functional, cell-based; settings: time 14.0 day

With `CC[C@H]1CCC[C@H](O[C@H]2CC[C@H](N(C)C)[C@@H](C)O2)[C@@H](C)C(=O)C2=C[C@@H]3[C@@H](C=C[C@@H]4C[C@@H](O[C@@H]5O[C@@H](C)[C@H](OC)[C@@H](OC)[C@H]5OC)C[C@@H]34)[C@@H]2CC(=O)O1` [SPINOSYN A] the inhibition [1] was “Active”, the inhibition [2] was “Tde” and the inhibition [3] was “Active”. For the same compound, the Activity [4] was “Non-Toxic”, the inhibition [5] was “Active” and the inhibition [6] was “Active”. For the same compound, the inhibition [7] was “Active”, the Activity [8] was “Non-Toxic” and the inhibition [9] was “Active”.
In the case of `CC[C@H]1CCC[C@H](O[C@H]2CC[C@H](N(C)CC(O)CN3CCNCC3)[C@@H](C)O2)[C@@H](C)C(=O)C2=C[C@@H]3[C@@H](C=C[C@@H]4C[C@@H](O[C@@H]5O[C@@H](C)[C@H](OC)[C@@H](OC)[C@H]5OC)C[C@@H]34)[C@@H]2CC(=O)O1` (stereo partly specified), the inhibition [10] is reported as “Active”, the inhibition [11] is reported as “Active” and the inhibition [12] is reported as “Tde”. For the same compound, the Activity [13] was “Non-Toxic”, the Activity [14] was “Non-Toxic” and the inhibition [15] was “Active”. For the same compound, the Activity [16] was “inactive”.
